Reference: patent publication US5891847A, “Treatment of degenerative eye disorders” (Ramot University Authority for Applied Research and …, priority 1992, dated 1999)

Test system: RCS rats
Assay: Retinal degeneration in RCS rats: histological and morphometric analysis of the retina after daily intramuscular injections
Assay type: in vivo, rat
From the text: Royal College Surgeons (RCS) rats were used. In RCS rats, a progressive loss of photoreceptor cells, caused by a recessively autosomal mutation of the RPE (La Vail, 1981), leads to severe visual impairment. Due to the failure of pigment epithelium phagocytosis, rod outer segment material accumulates between the retina and the RPE and results in retinal degeneration. […] The age of the animals in the experiment will hereinafter be referred to in relation with the postnatal day which will be indicated as pn, wherein n=the postnatal day. This disorder is similar to age-related macular degeneration in humans in that a metabolic insufficiency of the RPE cells results in a secondary progressive photoreceptor loss and vision impairment.
Enucleated eyes removed from the orbit eyes were fixated for plastic embedding in epoxy resin (Faktorovitch 1990; La Vail, 1981). The eyes were sectioned parallel to the vertical meridian.
The histological sections which were analyzed originated from the posterior part of the eye, from ora serata to ora serata including the optic nerve. Each histological preparation was analyzed by computerized image analysis. Twelve measurements (six from each side of the optic nerve) were taken at pre-determined points. At each point the number of rows of photoreceptors in the outer nuclear layer (ONL), as well as the thickness of inner plexiform layer (IPL) were determined.
The RCS rats of the experiment were divided into three groups of rats, each group including eight rats (8 eyes). The three groups were as follows:
1. RCS rats at the age of p23 receiving no treatment.
2. RCS rats at the age of p38 receiving no treatment.
3. RCS rats at the age of p23 receiving daily intramuscular injections to the hind leg containing α-MSH analog which was prepared as described above. Each rat received 0.01 micrograms of the α-MSH analog in 0.2 ml PBS in each injection.
The rats were sacrificed at the age of p38, the eyes were enucleated and then subjected to fixation and histological sections were prepared, as described above. The histological preparations of the eyes were examined morphometrically as described above and, in addition, the retinas were also examined by light microscopy.
The effect of α-MSH analog treatment on the retinas of the rats was quantitated by measuring the two following parameters at 11 or 14 points in the retina at various distances from the optic nerve:
An experiment similar to the one described above was also carried out in which the α-MSH analog treatment of Group 3 rats was replaced by α-MSH treatment. The result of this experiment, not shown were similar to the results of the above described experiment.

[1] = RCS rats, daily i.m. injections, compared to untreated rats

Substance: Nle^4 D-Phe^7 α-MSH [α-MSH analog]
- number of layers of photoreceptors in the ONL (histological preparation, FIG. 3) (RCS rat at p38, daily intramuscular injections p23 to p38, 0.01 micrograms per injection, untreated 3-4 layers): 7-8 layers
- mean row number in treated higher than in non-treated (RCS rats at p38, ONL photoreceptor rows, treated vs non-treated): 60%
- mean number of photoreceptor rows in ONL (FIG. 4) (RCS rats at p38, daily i.m. injections, 9 out of 11 points of measurement, non-treated 3.5±0.4, p<0.05): 5.6±0.6 rows
- thickness of the inner plexiform layer (IPL) (FIG. 5) (RCS rats at p38, central sector of the retina, 1.3 mm of each side of the optic nerve, untreated 23 microns, p<0.05): 50 microns
- effect on photoreceptor degeneration (in words) [1]: rescued from degeneration
- effect on thickness of IPL / adjacent retinal layers (in words) [1]: significantly greater
- effective dose per rat (daily intramuscular injection) (RCS rats, dose needed to obtain the same effect on photoreceptor degeneration and retinal layer thickness): 0.01-0.5 microgram
- number of rows of photoreceptors in the ONL, fold higher than non-treated (points 0.8 mm and 1.7 mm away from the optic nerve, Group 3 vs Group 2, p<0.001): 2 ×
